For experiment [1], the target named is GST-tagged recombinant human RIP2 (Homo sapiens (Human), UniProt O43353). As to the kind of experiment: RIP2 Kinase Assay (ADP-Glo). Format: biochemical. To be noted: in vitro kinase activity, ATP 25 μM. In general terms: ADP-Glo first removes unused ATP, then detects ADP through luciferase.
Experiment [2] has as its target His-tagged recombinant human ABL1 (Homo sapiens (Human), UniProt P00519). As to the kind of experiment: c-Abl Kinase Assay (ADP-Glo). Conditions: in vitro kinase activity, ATP 25 μM. Format: biochemical. The protocol:
ADP-Glo assay kit was purchased from Promega. Magnesium chloride (MgCl2), bovine serum albumin (BSA), ethylene glycol-bis(β-aminoethyl ether)-N,N,N′,N′-tetraacetic acid (EGTA), tween-20, 1,4-dithiothreitol (DTT) and dimethyl sulfoxide (DMSO) were purchased from Sigma-Aldrich. HEPES buffer was purchased from Gibco. ABL1 kinase and Abltide were purchased from Signalchem.
c-Abl kinase activity was measured by Promega's ADP-Glo™ Assay. In this assay, His-tagged recombinant human ABL1 (0.25 ng/μl) is incubated with 5 μL of compounds (0.5% DMSO), 5 μL of Abltide (0.01 μg/μl) and 5 μL of ATP (25 μM) in buffer (50 mM HEPES, 7.5; 10 mM MgCl2; 1 mM EGTA; 0.05% BSA; 0.01% Tween-20; 2 mM DTT). The assay was started by incubating the reaction mixture in a 96-well plate at 30° C. for 30 min. After the incubation, 25 μL ADP-Glo reagent was added and the reaction was incubated at room temperature for 40-min to stop the reaction and degrade residual ATP. The ADP product was then converted to ATP by adding 50 μL per well of detection reagent. Luminescence was detected after 30-min room temperature incubation with the Molecular device I3X plate reader. The IC50 values were calculated from a series of percent inhibition values determined at a range of inhibitor concentration using software routines as implemented in the GraphPad Prism 7 software and Sigma Plot 13.0.

For experiment [3], the system named is IL-6 secretion in BV-2 mouse microglia cells. Kind of experiment: IL-6 Secretion in BV-2 Cell (L18-MDP stimulated, ELISA). Format: cell-based. Conditions: BV-2 cells, 10 μg/ml L18-MDP, 24 hr. The protocol: IL-6 Secretion in BV-2 Cell
BV-2 mouse microglia cells were kindly provided from Dr. Bae in Korea Institute of Science and Technology (KIST). BV-2 cells were thawed and suspended in Dulbecco's modified eagle medium (DMEM) supplemented with 10% fetal bovine serum (FBS) and 1% Penicillin/Streptomycin. Cells were seeded into 96 well plates at 2×10^4 cells/well and allowed to attach for 24 hr. On the day of the experiment, various concentration of FB compounds was treated, and cells were stimulated with 10 μg/ml L18-MDP. After 24 hr incubation, supernatant was collected for cytokine assay.
Absorbance at 450 nm was measured using SpectraMax i3X microplate reader (Molecular Device). Values of media-only wells were subtracted and % inhibition for each compound concentration relative to the DMSO/L18-MDP-treated controls (100%) was calculated. The IC50 values were calculated from a series of percent activity values using software as implemented in the GraphPad Prism 7 software and SigmaPlot 13.0.

Each structure is given as a SMILES string.

In general, IC50 refers to the point on the concentration scale where inhibition reaches its midpoint.

GST-tagged recombinant human RIP2, sequence (O43353 whole entry): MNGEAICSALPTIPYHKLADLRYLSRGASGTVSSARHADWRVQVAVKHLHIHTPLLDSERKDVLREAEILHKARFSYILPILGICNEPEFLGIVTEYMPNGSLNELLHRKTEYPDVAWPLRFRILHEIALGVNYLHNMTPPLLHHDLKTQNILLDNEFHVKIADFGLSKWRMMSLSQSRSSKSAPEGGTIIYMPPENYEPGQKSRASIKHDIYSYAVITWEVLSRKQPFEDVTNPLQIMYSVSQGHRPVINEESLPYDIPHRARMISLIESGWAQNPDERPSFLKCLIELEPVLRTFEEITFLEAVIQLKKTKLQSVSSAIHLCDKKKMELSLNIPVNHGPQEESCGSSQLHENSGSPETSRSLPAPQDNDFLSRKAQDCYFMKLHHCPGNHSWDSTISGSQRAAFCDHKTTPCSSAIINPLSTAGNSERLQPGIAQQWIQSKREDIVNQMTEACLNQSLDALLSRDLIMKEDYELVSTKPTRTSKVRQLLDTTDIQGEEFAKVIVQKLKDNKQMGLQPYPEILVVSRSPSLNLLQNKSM
His-tagged recombinant human ABL1, sequence (P00519 whole entry): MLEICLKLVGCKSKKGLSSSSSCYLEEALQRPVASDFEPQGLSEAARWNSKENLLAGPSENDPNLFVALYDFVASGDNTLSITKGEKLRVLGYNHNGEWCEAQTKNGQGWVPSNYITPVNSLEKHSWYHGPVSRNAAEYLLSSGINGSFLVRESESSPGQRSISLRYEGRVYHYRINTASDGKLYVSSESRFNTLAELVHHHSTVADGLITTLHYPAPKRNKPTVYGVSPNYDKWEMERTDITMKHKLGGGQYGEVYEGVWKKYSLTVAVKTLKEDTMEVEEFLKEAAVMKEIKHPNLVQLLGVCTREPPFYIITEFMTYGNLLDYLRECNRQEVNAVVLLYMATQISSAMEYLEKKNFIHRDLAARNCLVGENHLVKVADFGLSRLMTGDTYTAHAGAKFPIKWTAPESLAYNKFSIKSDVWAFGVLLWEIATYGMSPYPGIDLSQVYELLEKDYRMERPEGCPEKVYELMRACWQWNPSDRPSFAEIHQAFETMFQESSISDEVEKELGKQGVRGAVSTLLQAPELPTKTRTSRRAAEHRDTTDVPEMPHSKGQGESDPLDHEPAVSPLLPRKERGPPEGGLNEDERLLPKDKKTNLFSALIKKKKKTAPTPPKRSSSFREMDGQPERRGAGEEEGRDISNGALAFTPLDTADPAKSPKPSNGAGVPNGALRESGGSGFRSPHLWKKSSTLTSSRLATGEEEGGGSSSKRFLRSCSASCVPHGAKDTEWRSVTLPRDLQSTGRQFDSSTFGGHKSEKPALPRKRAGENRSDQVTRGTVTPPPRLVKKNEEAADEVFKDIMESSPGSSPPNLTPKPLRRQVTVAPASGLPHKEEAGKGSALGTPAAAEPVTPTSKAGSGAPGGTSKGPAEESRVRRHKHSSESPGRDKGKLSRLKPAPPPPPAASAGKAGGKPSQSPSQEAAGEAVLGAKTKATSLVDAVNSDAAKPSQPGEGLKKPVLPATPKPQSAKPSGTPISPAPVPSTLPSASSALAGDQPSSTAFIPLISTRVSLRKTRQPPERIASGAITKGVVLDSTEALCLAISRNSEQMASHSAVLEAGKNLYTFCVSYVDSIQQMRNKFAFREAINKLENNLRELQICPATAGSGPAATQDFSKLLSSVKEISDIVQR

`Cc1c(-c2ccc3nc(N)c(C(=O)[C@@H]4C[C@@H]4F)n3c2)cnc2[nH]ccc12` [Example 40]: the values for the IC50 in experiment [1], in experiment [2] and in experiment [3] were 0.001 to 0.1 µM, 0.001 to 0.1 µM and 0.101 to 0.5 µM, respectively.

As for `Nc1nc2ccc(-c3ccc4[nH]ccc4c3)cn2c1C(=O)[C@@H]1C[C@@H]1F` [Example 51], the IC50 in experiment [1] was in the range of 0.001 to 0.1 µM; in experiment [2], 0.001 to 0.1 µM; in experiment [3], 0.101 to 0.5 µM.

As to `Nc1nc2ccc(-c3cccc4[nH]ccc34)cn2c1C(=O)[C@@H]1C[C@@H]1F` [Example 57], the IC50 lay in the range of 0.001 to 0.1 µM in experiment [1], 0.001 to 0.1 µM in experiment [2] and 0.101 to 0.5 µM in experiment [3].

Consider `Cc1c(F)cc2[nH]ncc2c1-c1ccc2nc(N)c(C(=O)[C@@H]3C[C@@H]3F)n2c1` [Example 60], for which the IC50 in experiment [1] fell in the range of 0.001 to 0.1 µM; in experiment [2] it was 0.101 to 0.5 µM; in experiment [3], 0.001 to 0.1 µM.

As to `Cc1c(-c2ccc3nc(N)c(C(=O)[C@@H]4C[C@@H]4F)n3c2)ccc2[nH]ccc12` [Example 89, (2-amino-6-(4-methyl-1H-indol-5-yl)imidazo[1,2-a]pyridin-3-yl)((1S,2S)-2-fluorocyclopropyl)methanone], the IC50 in experiment [1] is 0.001 to 0.1 µM; in experiment [2] it was 0.001 to 0.1 µM; in experiment [3], 0.101 to 0.5 µM.

As to `Nc1nc2ccc(-c3ccnc4[nH]ccc34)cn2c1C(=O)[C@@H]1C[C@@H]1F` [Example 104], the IC50 in experiment [1] fell in the range of 0.001 to 0.1 µM; in experiment [2] it was 0.001 to 0.1 µM; in experiment [3], 0.101 to 0.5 µM.

`Nc1nc2ccc(-c3c[nH]c4ccccc34)cn2c1C(=O)[C@@H]1C[C@@H]1F` [Example 105]: the IC50 lay within 0.001 to 0.1 µM in experiment [1], 0.001 to 0.1 µM in experiment [2] and 0.101 to 0.5 µM in experiment [3].

Regarding `Nc1nc2ccc(-c3cc(F)cc4[nH]ccc34)cn2c1C(=O)[C@@H]1C[C@@H]1F` [Example 113], the IC50 in experiment [1] lay in the range of 0.001 to 0.1 µM; in experiment [2], 0.001 to 0.1 µM; in experiment [3] it was 0.101 to 0.5 µM.

As to `Cc1c(F)cc2[nH]ccc2c1-c1ccc2nc(N)c(C(=O)[C@@H]3C[C@@H]3F)n2c1` [Example 114], the IC50 in experiment [1] lay within 0.001 to 0.1 µM; in experiment [2], 0.001 to 0.1 µM; in experiment [3] it was 0.101 to 0.5 µM.

These data come from US11744824B2, “2-amino-3-carbonyl imidazopyridine and pyrazolopyridine compounds” (1ST Biotherapeutics, Inc., priority 2020, dated 2023).
